Test results taken from PubChem BioAssay (NCI).
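Compound exposure: 48 hours, 5 concentrations, 96-well plates. TGI: concentration producing complete growth inhibition.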

Key:
Test in all cases: NCI-60 cell line screen, 48 h
[1] = system: A549 NSCLC
[2] = system: SK-OV-3 ovarian
[3] = system: K-562 leukemia
[4] = system: TK-10 renal
[5] = system: HCT-116 colon
[6] = system: UACC-62 melanoma
[7] = system: DMS 114 small cell lung
[8] = system: SK-MEL-2 melanoma
[9] = system: KM12 colon
[10] = system: OVCAR-4 ovarian
[11] = system: HT29 colon
[12] = system: OVCAR-3 ovarian
[13] = system: SNB-19 CNS
[14] = system: SW-620 colon
[15] = system: SN12C renal
[16] = system: LXFL 529 NSCLC
[17] = system: HOP-92 NSCLC
[18] = system: LOX IMVI melanoma
[19] = system: HCC-2998 colon
[20] = system: U251 CNS
[21] = system: OVCAR-5 ovarian
[22] = system: HOP-62 NSCLC
[23] = system: SK-MEL-5 melanoma
[24] = system: COLO 205 colon
[25] = system: MALME-3M melanoma
[26] = system: A498 renal
[27] = system: CCRF-CEM leukemia
[28] = system: SF-268 CNS
[29] = system: OVCAR-8 ovarian
[30] = system: XF 498 CNS
[31] = system: MOLT-4 leukemia
[32] = system: UACC-257 melanoma
[33] = system: IGROV1 ovarian
[34] = system: NCI-H23 lung
[35] = system: SF-539 CNS
[36] = system: CAKI-1 renal
[37] = system: UO-31 renal
[38] = system: SF-295 CNS
[39] = system: M14 melanoma
[40] = system: ACHN renal
[41] = system: RPMI-8226 leukemia
[42] = system: RXF-631 renal
[43] = system: NCI-H522 lung
[44] = system: NCI-H460 lung
[45] = system: 786-0 renal
[46] = system: SNB-75 CNS
[47] = system: M19-MEL melanoma
[48] = system: DLD-1 colon
[49] = system: HCT-15 colon
[50] = system: KM20L2 colon
[51] = system: SK-MEL-28 melanoma
[52] = system: EKVX NSCLC
[53] = system: DMS 273 small cell lung
[54] = system: NCI-H226 lung
[55] = system: SNB-78 CNS
[56] = system: RXF 393 renal
[57] = system: HL-60(TB) leukemia
[58] = system: SR leukemia
[59] = system: HOP-18 NSCLC

Measured: TGI

CCCNCCCC(NC(C)=O)C(=O)NCc1ccccc1 (centres undefined)
not listed: [57] | [58] | [59]
> 100 µM: all other assays above

COC[C@@H](N=CN1CCc2cc(OC)c(OC)cc2[C@@H]1C)C(C)(C)C
not listed: [18] | [19] | [21] | [26] | [53] | [55]
> 100 µM: all other assays above

CC1CC#CCOC(=O)CCCC1=O (centres undefined)
not listed: [8] | [17] | [21] | [25] | [26] | [32] | [36] | [37] | [40] | [42] | [49] | [52] | [58]
> 100 µM: all other assays above

O=c1[nH]c(=O)n([C@@H]2C[C@H](CO)[C@H](O)C2)cc1/C=C/Br
not listed: [15] | [24] | [30] | [56] | [58]
> 100 µM: all other assays above
